The target of assay [1] is T1, ABA-1A (rABA-1A, RP-ABA-1A; As-NPA-1A) (Ascaris suum, UniProt Q06811). Put plainly: fluorescence blue-shift of probe. The assay is classed as binding. The note with it: PBS pH 7.3, 25 °C, data not shown.
The target of assay [2] is T1, ABA-1A (rABA-1A, RP-ABA-1A; As-NPA-1A). In words: fluorescence titration (probe enhancement, […] nm). The assay is classed as binding.

Each structure is given as a SMILES string.

T1 sequence (Q06811 534-662): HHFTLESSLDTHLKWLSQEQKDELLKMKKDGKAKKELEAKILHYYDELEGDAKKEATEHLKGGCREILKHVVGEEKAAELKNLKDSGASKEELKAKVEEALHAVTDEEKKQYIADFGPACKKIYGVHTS

Turning to `CCCCCCC(NS(=O)(=O)c1cccc2c(N(C)C)cccc12)C(=O)O` (racemic) [DACA, dansyl-α-aminooctanoic acid], the “fluorescence blue-shift of probe” value in assay [1] is “A similar blue-shift (data not shown) was observed using dansyl-DL-α-caprylic acid (DACA)”.
The term Kd denotes the free concentration of one partner at which half of the binding sites on the other are occupied at equilibrium, for simple one-to-one binding. In the case of `CN(C)c1cccc2c(S(=O)(=O)NCCCCCCCCCCC(=O)O)cccc12` [DAUDA, 11-(((5-(dimethylamino)-1-napthalenyl)sulfonyl)amino)undecanoic acid], the Kd in assay [2] came to 110 nM.

The values are drawn from publication PMC3079579, “Solution Structure of a Repeated Unit of the ABA-1 Nematode Polyprotein Allergen of Ascaris Reveals a Novel Fold and Two Discrete Lipid-Binding Sites” (PLoS Neglected Tropical Diseases, 2011).
